Consider 14 compounds from PubChem BioAssay (NCI).

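Each compound was tested at five concentrations against cells in 96-well plates for 48 hours. The concentration for full growth arrest is given as TGI.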 Some results are limits rather than exact numbers.

Test systems include COLO 205 colon; UACC-257 melanoma; OVCAR-8 ovarian; SK-OV-3 ovarian; SNB-75 CNS; SN12C renal; RPMI-8226 leukemia; DLD-1 colon; SNB-19 CNS; ACHN renal; KM20L2 colon.
Common to all, as to assay: NCI anticancer screen, dose series, 48 h

Take `CCC(=O)OC1CCn2c1nc1c2C(=O)C(C)=C(NC(C)=O)C1=O` (configuration not stated): the TGI with COLO 205 colon worked out at 11.6 µM; with UACC-257 melanoma, 3.15 µM; in the assay with OVCAR-8 ovarian it was 2.09 µM; with SK-OV-3 ovarian, 11.4 µM; in the assay on SNB-75 CNS it was 10.3 µM; in the assay with SN12C renal, 3.19 µM. Moreover, the TGI in the assay on RPMI-8226 leukemia came out at 5.66 µM; in the assay with DLD-1 colon, 3.96 µM; with SNB-19 CNS, 6.75 µM; with ACHN renal, 11.7 µM.
Take `CC1CC(=O)Nc2ccc(Cl)cc2N1C(=O)CN1CCC(CCCCN(C)C)CC1` (configuration not stated): the TGI in the assay on COLO 205 colon, in the assay with UACC-257 melanoma, in the assay with OVCAR-8 ovarian, in the assay on SK-OV-3 ovarian, with SN12C renal and in the assay on KM20L2 colon was above 100 µM each time. The TGI in the assay on RPMI-8226 leukemia, with DLD-1 colon, in the assay on SNB-19 CNS and in the assay on ACHN renal was above 100 µM in each case.
On to `CC(=O)Nc1ccc(-c2nnc(SCC(=O)Nc3cccc(C)c3)o2)cc1`, for which the TGI amounted to 28 µM in the assay with COLO 205 colon; 24.9 µM in the assay on UACC-257 melanoma; 38.9 µM in the assay with OVCAR-8 ovarian; 81.5 µM in the assay on SK-OV-3 ovarian; 45.8 µM with SNB-75 CNS; 28.5 µM in the assay on SN12C renal. Besides, the TGI turned out to be 22 µM in the assay with KM20L2 colon, 67 µM in the assay on RPMI-8226 leukemia, 23.1 µM in the assay on DLD-1 colon and 22.5 µM with ACHN renal.
For `CCCCn1c(-c2ccccc2)cs/c1=N\N=C1C=C(C(C)(C)C)C(=O)C(C(C)(C)C)=C1`, the TGI in the assay on COLO 205 colon, in the assay on UACC-257 melanoma, with OVCAR-8 ovarian, in the assay with SN12C renal, with KM20L2 colon and in the assay with SNB-19 CNS was above 100 µM each time. The TGI with ACHN renal is above 100 µM.
On to `O=C(NN1C(=O)C(Cl)C1c1cccc(O)c1)c1ccccc1O` (configuration not stated), for which the TGI with UACC-257 melanoma, with OVCAR-8 ovarian, in the assay on SK-OV-3 ovarian, with SNB-75 CNS, in the assay on SN12C renal and with DLD-1 colon was above 100 µM each time. In addition, the TGI with SNB-19 CNS and in the assay on ACHN renal was above 100 µM each time.
Turning to `O=c1oc2cc(O)ccc2c2[nH]c3cc(O)ccc3c12`, the TGI is 74.9 µM in the assay with COLO 205 colon; above 100 µM with UACC-257 melanoma; 78.7 µM in the assay on OVCAR-8 ovarian; 63.1 µM with SK-OV-3 ovarian; 46.2 µM in the assay with SNB-75 CNS; above 100 µM with SN12C renal. Besides, the TGI was above 100 µM with KM20L2 colon; above 100 µM with RPMI-8226 leukemia; 74.8 µM in the assay on DLD-1 colon; above 100 µM with SNB-19 CNS; 62.5 µM with ACHN renal.
Turning to `Cc1ccc(S(=O)(=O)NC(=O)C2S(=O)(=O)OCCOS2(=O)=O)cc1`, the TGI in the assay with COLO 205 colon, in the assay with UACC-257 melanoma, in the assay with OVCAR-8 ovarian, with SK-OV-3 ovarian, with SNB-75 CNS and in the assay on SN12C renal was above 100 µM each time. The TGI in the assay on RPMI-8226 leukemia, in the assay with DLD-1 colon and with SNB-19 CNS was above 100 µM each time.
On to `CCN(CC)CC1CCCCN1CC(=O)N1c2cc(Cl)ccc2NC(=O)CC1C` (configuration not stated), for which the TGI in the assay with COLO 205 colon, in the assay with UACC-257 melanoma, with OVCAR-8 ovarian, in the assay with SK-OV-3 ovarian, with SNB-75 CNS and in the assay with SN12C renal was above 100 µM in each case. Further, the TGI in the assay on KM20L2 colon, in the assay on RPMI-8226 leukemia, in the assay on DLD-1 colon, with SNB-19 CNS and in the assay with ACHN renal was above 100 µM throughout.
Turning to `CCOC(=O)/C=C/n1c2ccccc2c(=O)c2cc(OC)ccc21`, the TGI in the assay on COLO 205 colon, in the assay with UACC-257 melanoma, with OVCAR-8 ovarian, in the assay on SK-OV-3 ovarian, in the assay with SNB-75 CNS and in the assay on SN12C renal was above 100 µM in each case. In addition, the TGI in the assay on KM20L2 colon, in the assay with DLD-1 colon, in the assay on SNB-19 CNS and in the assay with ACHN renal was above 100 µM throughout.
With `O=C(Nc1ccccc1[N+](=O)[O-])/C(=N/Nc1cccc(Cl)c1)c1c(O)c2ccccc2oc1=O`, the TGI in the assay on COLO 205 colon is 47.6 µM; in the assay with UACC-257 melanoma, above 100 µM; with SK-OV-3 ovarian it was above 100 µM; in the assay with SNB-75 CNS it was above 100 µM; with KM20L2 colon it was above 100 µM; in the assay with DLD-1 colon, above 100 µM. For the same compound, the TGI in the assay with SNB-19 CNS and in the assay with ACHN renal was above 100 µM throughout.
Regarding `CC[C@H](C)[C@H](NC(=O)N(CCC#N)CCN(CCN(C(=O)N[C@@H](Cc1ccccc1)C(=O)OC)c1ccccc1)C(=O)N[C@H](C(=O)OC)C(C)C)C(=O)OC`, the TGI was 52.6 µM with COLO 205 colon; 29 µM in the assay on UACC-257 melanoma; 65.4 µM in the assay with OVCAR-8 ovarian; 41.2 µM in the assay on SK-OV-3 ovarian; 43.1 µM in the assay with SNB-75 CNS; 54.5 µM with SN12C renal. Also, the TGI was determined as 29.1 µM in the assay on RPMI-8226 leukemia, 35.9 µM with SNB-19 CNS and 26.7 µM in the assay with ACHN renal.
For `Cc1ccc2nc(N)[nH]c(=O)c2c1Sc1ccncc1`, the TGI with COLO 205 colon, with UACC-257 melanoma, with OVCAR-8 ovarian, with SK-OV-3 ovarian, in the assay with SNB-75 CNS and in the assay with SN12C renal was above 100 µM in each case. In addition, the TGI in the assay with KM20L2 colon, in the assay on RPMI-8226 leukemia, with DLD-1 colon, in the assay on SNB-19 CNS and with ACHN renal was above 100 µM throughout.
Consider `COc1ccc(C=Nc2ccc(-c3nc4ccccc4s3)cc2)cc1OC`, for which the TGI with COLO 205 colon is 39.6 µM; in the assay on UACC-257 melanoma, 61 µM; in the assay with OVCAR-8 ovarian it was above 100 µM; in the assay with SK-OV-3 ovarian, above 100 µM; in the assay on SNB-75 CNS, 75.7 µM; in the assay on SN12C renal it was above 100 µM. The TGI in the assay with RPMI-8226 leukemia is above 100 µM; with SNB-19 CNS, above 100 µM; with ACHN renal, 70.5 µM.
Take `CC(=N/NC(=S)N1CCCCCC1)/C(C)=N\NC(=S)N1CCCCCC1`: the TGI with COLO 205 colon was 38.5 µM; in the assay on UACC-257 melanoma it was 13.7 µM; in the assay on OVCAR-8 ovarian, above 100 µM; with SK-OV-3 ovarian, 8.85 µM; with SNB-75 CNS, 10.9 µM; in the assay on SN12C renal, 3.99 µM. Moreover, the figures for the TGI in the assay on RPMI-8226 leukemia, with SNB-19 CNS and in the assay on ACHN renal were above 100 µM, 48.1 µM and 9.67 µM, respectively.
